Test results from the supplement of paper PMC10307832.

Experiments:
Assay in all cases: relative viability (nuclei count vs DMSO), 5 days (fraction); higher = more cells survive
[1] = compound: COc1cc2c(Oc3ccc4[nH]c(C)cc4c3F)ncnc2cc1OCCCN1CCCC1 [Cediranib] + CS(=O)(=O)N1CCN(Cc2cc3nc(-c4cccc5[nH]ncc45)nc(N4CCOCC4)c3s2)CC1 [Pictilisib] (partner 1 µM)
Summary of the method: (§1)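 Lung cancer cell lines in 1536-well plates were dosed by pin tool the day after seeding, either with one drug alone or with a fixed anchor-drug dose plus five library-drug doses (not always all listed) in √10 steps. After 5 days, cells were fixed and their nuclei stained in one step (final 0.05% Triton X-100, 1% formaldehyde, 1 ug/ml Hoechst), then counted on 4× images. Relative viability is the nuclei count in treated wells divided by that in vehicle wells. Values are medians of duplicate plates.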

[2] = compound: Nc1ncn([C@H]2C[C@H](O)[C@@H](CO)O2)c(=O)n1 [Decitabine] + Nc1nc2[nH]cc(CCc3ccc(C(=O)N[C@@H](CCC(=O)O)C(=O)O)cc3)c2c(=O)[nH]1 [Pemetrexed] (partner 0.2 µM)
Summary of the method: as §1

[3] = compound: O=C(C[C@H]1NCCC[C@@H]1O)Cn1cnc2cc(Br)c(Cl)cc2c1=O (racemic) [Halofuginone] + CC(C)C[C@H](NC(=O)[C@H](Cc1ccccc1)NC(=O)c1cnccn1)B(O)O [Bortezomib] (partner 0.002 µM)
Summary of the method: as §1

[4] = compound: O=C(C[C@H]1NCCC[C@@H]1O)Cn1cnc2cc(Br)c(Cl)cc2c1=O (racemic) [Halofuginone] + Cc1cc(Nc2cc(N3CCN(C)CC3)nc(Sc3ccc(NC(=O)C4CC4)cc3)n2)n[nH]1 [Tozasertib] (partner 0.1 µM)
Summary of the method: as §1

Cell Line	relative viability ([1]; first compound 0.1265 µM)	relative viability ([1]; first compound 0.4 µM)	relative viability ([1]; first compound 1.265 µM)	relative viability ([1]; first compound 4 µM)	relative viability ([2]; first compound 0.04 µM)	relative viability ([2]; first compound 0.1265 µM)	relative viability ([2]; first compound 0.4 µM)	relative viability ([2]; first compound 1.265 µM)	relative viability ([2]; first compound 4 µM)	relative viability ([3]; first compound 0.001 µM)	relative viability ([3]; first compound 0.003162 µM)	relative viability ([3]; first compound 0.01 µM)	relative viability ([3]; first compound 0.03162 µM)	relative viability ([3]; first compound 0.1 µM)	relative viability ([4]; first compound 0.001 µM)	relative viability ([4]; first compound 0.003162 µM)	relative viability ([4]; first compound 0.01 µM)	relative viability ([4]; first compound 0.03162 µM)	relative viability ([4]; first compound 0.1 µM)	relative viability ([1]; first compound 0.04 µM)
COR-L 105	0.434	0.332	0.376	0.403	1.01	1.08	0.882	0.698	0.668	1.01	0.86	0.769	0.674	0.44	0.337	0.288	0.385	0.329	0.346	–
LCLC-97TM1	–	0.168	0.122	0.248	0.173	0.134	0.0965	0.125	0.13	0.49	0.365	0.512	0.144	0.179	0.265	0.247	0.203	0.243	0.208	0.174
NCI-H520	–	0.246	0.221	0.22	0.545	0.468	0.477	0.317	0.293	0.723	0.721	0.494	0.579	0.314	0.457	0.457	0.461	0.467	0.322	0.312
NCI-H1993	0.806	0.719	0.805	0.809	0.542	0.583	0.607	0.506	0.403	1.27	1.14	1.07	1.27	0.786	0.56	0.52	0.565	0.545	0.532	0.883
NCI-H1437	0.413	0.442	0.228	0.499	0.318	0.276	0.295	0.235	0.214	0.548	0.604	0.504	0.483	0.253	0.407	0.387	0.425	0.393	0.399	0.484
LC-2-ad	0.567	0.411	0.395	0.201	0.288	0.255	0.27	0.239	0.266	1.3	1.08	0.972	1.01	0.667	0.476	0.508	0.422	0.351	0.225	0.655
HARA	0.684	0.393	0.481	0.37	0.2	0.247	0.209	0.202	0.211	1.12	1.03	1.09	1.15	1.14	0.116	0.118	0.105	0.105	0.0853	0.269
NCI-H650	0.956	0.836	0.915	1.04	0.686	0.588	0.382	0.273	0.266	0.903	0.877	0.717	0.694	0.576	0.912	0.772	0.709	0.67	0.426	0.848
NCI-H1975	0.466	0.275	0.239	0.29	0.247	0.205	0.182	0.209	0.188	0.432	0.383	0.402	0.339	0.168	1.04	0.848	0.737	0.354	0.13	0.316
NCI-H2085	0.501	0.473	0.419	0.399	0.782	0.807	0.511	0.513	0.364	1.07	1.06	1.04	0.9	0.753	0.959	0.877	0.729	0.847	0.716	0.466
NCI-H3122	0.674	0.585	0.55	0.588	0.182	0.179	0.121	0.159	0.185	1.05	1.06	1	0.954	1.04	0.38	0.381	0.356	0.414	0.166	0.669
NCI-H1651	0.77	0.533	0.458	0.445	0.543	0.43	0.434	0.331	0.278	0.93	0.972	0.915	0.898	0.903	1.03	0.773	0.702	0.471	0.352	0.666
NCI-H441	0.474	0.45	0.378	0.426	0.214	0.203	0.184	0.197	0.235	0.456	0.457	0.6	0.491	0.433	0.737	0.792	0.568	0.57	0.256	0.492
NCI-H2126	0.432	0.458	0.452	0.435	0.68	0.648	0.391	0.453	0.341	1.16	1.08	1.07	1.07	1.11	0.918	0.845	0.859	0.793	0.62	0.442
RERF-LC-KJ	0.573	0.516	0.461	0.431	0.441	0.403	0.215	0.401	0.369	1.23	1.12	1.15	1.17	1.04	0.549	0.484	0.468	0.456	0.346	0.526
NCI-H1666	0.475	0.422	0.5	0.431	0.874	0.79	0.712	0.641	0.504	0.856	0.902	0.791	0.85	0.618	0.656	0.644	0.56	0.596	0.704	0.383

Cell Line	relative viability ([1]; first compound 0.1265 µM)	relative viability ([1]; first compound 0.4 µM)	relative viability ([1]; first compound 1.265 µM)	relative viability ([1]; first compound 4 µM)	relative viability ([2]; first compound 0.04 µM)	relative viability ([2]; first compound 0.1265 µM)	relative viability ([2]; first compound 0.4 µM)	relative viability ([2]; first compound 1.265 µM)	relative viability ([2]; first compound 4 µM)	relative viability ([3]; first compound 0.001 µM)	relative viability ([3]; first compound 0.003162 µM)	relative viability ([3]; first compound 0.01 µM)	relative viability ([3]; first compound 0.03162 µM)	relative viability ([3]; first compound 0.1 µM)	relative viability ([4]; first compound 0.001 µM)	relative viability ([4]; first compound 0.003162 µM)	relative viability ([4]; first compound 0.01 µM)	relative viability ([4]; first compound 0.03162 µM)	relative viability ([4]; first compound 0.1 µM)	relative viability ([1]; first compound 0.04 µM)
PC-14	0.918	0.487	0.438	0.652	0.123	0.0812	0.0659	0.0902	0.0856	0.865	0.819	0.697	0.13	0.0654	0.701	0.626	0.495	0.529	0.208	0.826
NCI-H1915	0.722	0.87	0.837	1.04	0.274	0.225	0.222	0.191	0.176	0.522	1.05	0.93	1	0.973	0.463	0.462	0.416	0.448	0.299	0.874
NCI-H661	0.588	0.419	0.318	0.366	0.779	0.657	0.572	0.481	0.404	0.848	0.826	0.845	0.822	0.536	0.365	0.35	0.322	0.33	0.391	0.428
HCC-78	0.204	0.21	0.174	0.187	0.902	1.18	0.874	0.825	0.864	0.653	0.42	0.445	0.543	0.369	0.491	0.422	0.503	0.347	0.427	0.24
PC-3 [JPC-3]	0.905	0.708	0.671	0.768	–	0.845	0.439	0.528	0.586	0.852	0.875	0.736	0.799	0.873	0.863	0.872	0.863	0.874	0.856	0.659
LCLC-103H	0.754	0.619	0.654	0.56	0.426	0.362	0.284	0.379	0.333	1.06	0.9	1.1	0.956	1.03	0.503	0.59	0.446	0.443	0.425	0.63
EKVX	0.563	0.427	0.487	0.383	0.281	0.369	0.255	0.205	0.194	1.15	1.02	1.05	1.01	0.935	0.432	0.377	0.352	0.354	0.349	0.408
NCI-H460	0.7	0.355	0.33	0.397	0.0582	0.0551	0.0502	0.0449	0.0449	1.07	1.09	0.922	0.66	0.0555	0.611	0.572	0.438	0.444	0.19	0.466
NCI-H838	0.46	0.395	0.275	0.558	0.225	0.236	0.2	0.19	0.198	1.16	1.03	0.746	0.614	0.121	0.257	0.315	0.256	0.214	0.212	0.542
H3255	0.525	0.409	0.494	0.446	0.453	0.547	0.446	0.486	0.453	0.906	0.664	0.616	0.767	0.651	0.709	0.524	0.723	0.67	0.618	0.533
EPLC-272H	–	0.346	0.305	0.248	0.346	0.256	–	0.339	0.27	0.772	1.09	0.918	0.98	0.779	0.241	0.333	0.318	0.279	0.247	0.322
NCI-H647	–	0.392	0.324	0.385	0.168	0.149	0.12	0.13	0.112	1.2	1.1	0.833	0.912	0.367	0.441	0.324	0.267	0.171	0.0868	0.429
LXF-289	0.783	0.729	0.779	0.819	0.69	0.541	0.423	0.315	0.297	0.928	1.08	0.985	0.996	0.908	0.196	0.199	0.245	0.173	0.178	0.815
NCI-H1650	0.234	0.494	0.468	0.383	0.325	0.311	0.27	0.25	0.25	0.234	0.24	0.208	0.221	0.203	0.559	0.384	0.357	0.29	0.192	0.61
NCI-H1755	0.349	0.415	0.392	0.396	0.477	0.376	0.406	0.419	0.365	0.968	0.913	0.94	0.99	0.816	0.591	0.569	0.567	0.591	0.461	0.329
HCC-15	–	0.699	0.686	0.987	0.2	0.207	0.179	0.19	0.191	1.02	1.14	1.05	1.03	0.952	0.47	0.461	0.394	0.43	0.239	0.602
